Test results published in US9522133B2, “Substituted 1,2,3,4-tetrahydrocyclopenta[b]indol-3-yl)acetic acid derivatives useful in the treatment of autoimmune and inflammatory disorders” (Arena Pharmaceuticals, Inc., priority 2008, dated 2016).

Columns and labels:
[1] = system: peripheral blood lymphocyte (PBL) count; test: Mouse peripheral lymphocyte lowering (PLL) assay; format: in vivo; details: male BALB/c mice, 5 hours post-dose, vs vehicle
Experimental: (§1) Male BALB/c mice (Charles River Laboratories, Wilmington, Mass.) were housed four per cage and maintained in a humidity-controlled (40 to 60%) and temperature-controlled (68 to 72° F.) facility on a 12 h:12 h light/dark cycle (lights on at 6:30 am) with free access to food (Harlan Teklad, Orange, Calif., Rodent Diet 8604) and water. Mice were allowed one week of habituation to the animal facility before testing.
(§2) Mice were given an oral dose of Compound 5, Compound 7 or dosing vehicle (0.5% methylcellulose) in a total volume of 10 mL/kg. Peripheral blood samples were collected at 5 hours post-dose. The mice were anesthetized with isoflurane and blood was collected via cardiac puncture. A complete cell count (CBC), including lymphocyte count, was obtained using a CELL-DYN® 3700 (Abbott Laboratories, Abbott Park, Ill.) instrument. Results are presented in FIGS. 1 and 2, in which peripheral blood lymphocyte (PBL) count is shown for the 5 hour group.
as §2, with “given a 1.00 mg/kg” for “given an”, “of the 2nd enantiomer of compound 12 (isolated after resolution of compound 12 by HPLC, with a retention time of 13.9 min per the conditions reported in Example 1.29)” for “of Compound 5, Compound 7”, “(0.5% methylcellulose in sterile water)” for “(0.5% methylcellulose)”, “in FIG. 7,” for “in FIGS. 1 and 2,”

[2] = system: peripheral blood lymphocyte (PBL) count; test: Rat peripheral lymphocyte lowering (PLL) assay; format: in vivo; details: male Sprague-Dawley rats, 1.00 mg/kg oral dose, 5 hours post-dose, vs vehicle; FIG. 8
Experimental: as §1, with “Sprague-Dawley rats (7 weeks of age at start of study)” for “BALB/c mice”, “Laboratories)” for “Laboratories, Wilmington, Mass.)”, “two” for “four”, “(40-60%)” for “(40 to 60%)”, “(68-72°” for “(68 to 72°”, “Rats” for “Mice”
Rats were given a 1.00 mg/kg oral dose of the 2nd enantiomer of compound 12 (isolated after resolution of compound 12 by HPLC, with a retention time of 13.9 min per the conditions reported in Example 1.29) or dosing vehicle (0.5% methylcellulose in sterile water) in a total volume of 1.00 mL/kg. Peripheral blood samples were collected at 5 hours post-dose. Blood was collected via indwelling catheter. A complete cell count (CBC), including lymphocyte count, was obtained using a CELL-DYN® 3700 (Abbott Laboratories, Abbott Park, Ill.) instrument. Results are presented in FIG. 8, in which peripheral blood lymphocyte (PBL) count is shown for the 5 hour group.

MOG-induced EAE = test: MOG-induced experimental autoimmune encephalomyelitis (EAE) in mice; format: in vivo, mouse; details: female C57BL/6 mice, oral once a day day 3 to day 21, 0.3, 1 and 3 mg/kg; FIG. 10
Experimental: as §1, with “Female C57BL/6” for “Male BALB/c”, “(8 to 10 weeks of age at start of study) (Jackson Laboratory, Bar Harbor, Me.)” for “(Charles River Laboratories, Wilmington, Mass.)”, “(40-60%)” for “(40 to 60%)”, “(68-72°” for “(68 to 72°”
Mice were immunized subcutaneously, 50 μL per hind flank, with a total of 100 μg MOG35-55 peptide emulsified 1:1 with Complete Freund's adjuvant containing 4 mg/mL heat-killed Mycobacterium tuberculosis. […]
Severity of disease symptoms was scored as follows (in increasing order of severity): 0=normal; 1=limp tail OR hind limb weakness; 2=limp tail AND limb weakness/weakness of 2 or more limbs; 3=severe limb weakness or single limb paralysis; 4=paralysis of 2 or more limbs; 5=death.
Mice were dosed orally, with vehicle or the 2nd enantiomer of compound 12 (isolated after resolution of compound 12 by HPLC, with a retention time of 13.9 min per the conditions reported in Example 1.29), once a day from day 3 until day 21. […] Mice were monitored daily from day 7 onward for disease symptoms. After the last dose on day 21, disease progression was monitored daily for 2 more weeks.

[3] = Cardiac telemetry / bradycardia assay in the rat; format: in vivo; details: male Sprague-Dawley rats, oral, vehicle PEG400, heart rate over a 120 min period; FIG. 11
Experimental: Male Sprague-Dawley rats (250-300 g at time of surgery) were implanted by Charles River Laboratories (Wilmington, Mass.) with cardiac transmitting devices (Data Sciences PhysioTel C50-PXT) into the peritoneal space, with a pressure-sensing catheter inserted into the descending aorta. Rats are allowed at least one week to recover. Rats were housed in individual cages and maintained in a humidity-controlled (30-70%) and temperature-controlled (20-22° C.) facility on a 12 h:12 h light/dark cycle (lights on at 7:00 am) with free access to food (Harlan-Teklad, Orange, Calif., Rodent Diet 8604) and water. Rats were allowed one week of habituation to the animal facility before testing.
The implanted transmitting devices transmitted continuous measurements of blood pressure (systolic, diastolic, mean arterial, pulse), heart rate, body temperature, and motor activity in freely moving conscious animals. […] Telemetry recording occurred over a 21-h period, starting at noon and continuing until 9:00 am the following day. […]
By way of illustration and not limitation, the rats were administered vehicle (PEG 400) and the 2nd enantiomer of compound 12 (isolated after resolution of compound 12 by HPLC, with a retention time of 13.9 min per the conditions reported in Example 1.29) and heart rate was then measured over a 120 min period.

mean ankle diameter = test: Collagen-induced arthritis in rats (ankle diameter); format: in vivo, rat; details: female Lewis rats, collagen injections day 0 and 6, p.o. q.d. day 0-16, 0.3, 1 and 3 mg/kg; FIG. 9
Experimental: Female Lewis rats were used in this study. Acclimated animals were anesthetized with isoflurane and given the first collagen injection (day 0). On day 6, they were anesthetized again for the second collagen injection. Collagen was prepared by making a 4 mg/mL solution in 0.01 N acetic acid. Equal volumes of collagen and incomplete Freund's adjuvant were emulsified by hand mixing until a bead of this material held its form when placed in water. Each animal received 300 μL of the mixture each time, spread over 3 subcutaneous sites on the back.
Treatment (p.o., q.d., 5 mL/kg dosing volume) began on day 0 and continued through day 16 with vehicle or compounds given at 24 h intervals. Rats were weighed on days 0, 3, 6 and 9 through 17 and caliper measurements of the ankles taken on days 9 through 17. The 2nd enantiomer of compound 12 (isolated after resolution of compound 12 by HPLC, with a retention time of 13.9 min per the conditions reported in Example 1.29) was dosed at 0.3, 1 and 3 mg/kg.

S1P1 receptor = biological target: T1, S1P1 receptor (Homo sapiens, UniProt P21453); test: HTRF assay for direct cAMP measurement (S1P1 agonism); format: cell-based; details: recombinant CHO-K1 cells stably transfected with S1P1 receptors; decrease of cAMP
T1 construct: expressed in transfected cells; host or cells: CHO-K1 (ATCC CCL-61), stably transfected
T1 sequence (P21453 whole entry): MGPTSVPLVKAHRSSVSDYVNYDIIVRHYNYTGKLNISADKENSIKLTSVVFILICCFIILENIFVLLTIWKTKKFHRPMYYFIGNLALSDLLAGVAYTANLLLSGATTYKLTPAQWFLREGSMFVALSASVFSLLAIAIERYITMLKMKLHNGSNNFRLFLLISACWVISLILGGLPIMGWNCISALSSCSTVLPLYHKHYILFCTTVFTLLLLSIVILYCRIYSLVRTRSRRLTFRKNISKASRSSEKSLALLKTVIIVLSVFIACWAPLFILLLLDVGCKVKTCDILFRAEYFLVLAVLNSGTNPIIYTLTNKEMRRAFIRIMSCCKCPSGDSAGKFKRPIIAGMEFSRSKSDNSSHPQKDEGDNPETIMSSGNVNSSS
Excerpt: Compounds were screened for agonists of the S1P1 receptor (e.g., human S1P1 receptor) using the HTRF® assay for direct cAMP measurement (Gabriel et al., Assay and Drug Development Technologies, 1:291-303, 2003) and recombinant CHO-K1 cells stably transfected with S1P1 receptors. CHO-K1 cells were obtained from ATCC® (Manassas, Va.; Catalog # CCL-61). An agonist of the S1P1 receptor was detected in the HTRF® assay for direct cAMP measurement as a compound which decreased cAMP concentration. HTRF® assay also was used to determine EC50 values for S1P1 receptor agonists.
HTRF® assay kit was purchased from Cisbio-US, Inc. (Bedford, Mass.; Catalog #62AM4PEC). The HTRF® assay supported by the kit is a competitive immunoassay between endogenous cAMP produced by the CHO-K1 cells and tracer cAMP labeled with the dye d2. The tracer binding is visualized by a monoclonal anti-cAMP antibody labeled with Cryptate. The specific signal (i.e., fluorescence resonance energy transfer, FRET) is inversely proportional to the concentration of unlabeled cAMP in the standard or sample.
The fluorescence ratio (665 nm/620 nm) of the standards (0.17 to 712 nM cAMP) included in the assay was calculated and used to generate a cAMP standard curve according to the kit manufacturer's instructions. The fluorescence ratio of the samples (test compound or compound buffer) was calculated and used to deduce respective cAMP concentrations by reference to the cAMP standard curve.
The HTRF® assay was carried out using a two-step protocol essentially according to the kit manufacturer's instructions, in 20 μL total volume per well in 384-well plate format (ProxiPlates; PerkinElmer, Fremont, Calif.; catalog #6008280). […] The plate was then further incubated at room temperature for 1 hour, after which the assay plate was read.
HTRF® readout was accomplished using a PHERAstar (BMG LABTECH Inc., Durham, N.C.) or EnVision™ (PerkinElmer, Fremont Calif.) microplate reader.

S1P3 receptor = S1P3 receptor (Homo sapiens, UniProt Q99500); details: attributed to agonism of the S1P3 receptor; cited from earlier work
Sequence of S1P3 receptor (Q99500 whole entry): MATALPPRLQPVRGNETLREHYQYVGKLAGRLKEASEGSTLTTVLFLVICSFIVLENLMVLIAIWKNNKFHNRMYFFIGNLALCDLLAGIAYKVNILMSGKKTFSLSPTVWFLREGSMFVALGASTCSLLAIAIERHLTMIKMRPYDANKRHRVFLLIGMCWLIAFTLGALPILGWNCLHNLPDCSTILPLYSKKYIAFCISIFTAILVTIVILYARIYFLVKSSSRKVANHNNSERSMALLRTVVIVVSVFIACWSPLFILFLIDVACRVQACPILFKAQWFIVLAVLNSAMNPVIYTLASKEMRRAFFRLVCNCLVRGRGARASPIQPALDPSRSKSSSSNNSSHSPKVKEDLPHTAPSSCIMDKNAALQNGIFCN

[4] = system: experimental autoimmune myasthenia gravis (EAMG); details: prophylactic oral administration, 1 mg/kg, three times a week, C57BL/6 mice; cited from earlier work

O=C(O)C[C@H]1CCc2c1[nH]c1ccc(OCc3ccc(C4CCCC4)c(C(F)(F)F)c3)cc21 [2nd enantiomer of compound 12, (R)-2-(7-(4-cyclopentyl-3-(trifluoromethyl)benzyloxy)-1,2,3,4-tetrahydrocyclopenta[b]indol-3-yl)acetic acid]
activity for inducing PBL lowering (lymphopenia) ([1]; 1.00 mg/kg oral dose, FIG. 7): exhibited activity for inducing PBL lowering (lymphopenia) | activity for inducing PBL lowering (lymphopenia) [2]: exhibited activity for inducing PBL lowering (lymphopenia) | reduction of severity of disease symptoms (clinical score) in EAE (MOG-induced EAE): exhibited activity in the mouse EAE assay | reduction of heart rate (bradycardia) [3]: no or substantially no reduction of heart rate | reduction of mean ankle diameter (mean ankle diameter): exhibited activity for reducing mean ankle diameter

N#Cc1cc(COc2ccc3[nH]c4c(c3c2)CCC4CC(=O)O)cc(OC(F)(F)F)c1 (stereo not drawn) [Compound 4, 2-(7-(3-cyano-5-(trifluoromethoxy)benzyloxy)-1,2,3,4-tetrahydrocyclopenta[b]indol-3-yl)acetic acid]
EC50 (S1P1 receptor): 16 nM

CC(C)Oc1ccc(COc2ccc3[nH]c4c(c3c2)CCC4CC(=O)O)cc1C#N (stereo not drawn) [Compound 5, 2-(7-(3-cyano-4-issopropoxybenzyloxy)-1,2,3,4-tetrahydrocyclopenta[b]indol-3-yl)acetic acid]
activity for inducing PBL lowering (lymphopenia) ([1]; oral dose, FIGS. 1 and 2): exhibited activity for inducing PBL lowering (lymphopenia)

N#Cc1cc(COc2ccc3[nH]c4c(c3c2)CCC4CC(=O)O)ccc1OC(F)(F)F (stereo not drawn) [Compound 7, 2-(7-(3-cyano-4-(trifluoromethoxy)benzyloxy)-1,2,3,4-tetrahydrocyclopenta[b]indol-3-yl)acetic acid]
activity for inducing PBL lowering (lymphopenia) ([1]; oral dose, FIGS. 1 and 2): exhibited activity for inducing PBL lowering (lymphopenia)

O=C(O)CC1CCc2c1[nH]c1ccc(OCc3ccc(C(F)(F)F)cc3C(F)(F)F)cc21 (stereo not drawn) [Compound 8, 2-(7-(2,4-bis(trifluoromethyl)benzyloxy)-1,2,3,4-tetrahydrocyclopenta[b]indol-3-yl)acetic acid]
EC50 (S1P1 receptor): 9 nM

O=C(O)CC1CCc2c1[nH]c1ccc(OCc3cc(C(F)(F)F)cc(C(F)(F)F)c3)cc21 (stereo not drawn) [Compound 10, 2-(7-(3,5-bis(trifluoromethyl)benzyloxy)-1,2,3,4-tetrahydrocyclopenta[b]indol-3-yl)acetic acid]
EC50 (S1P1 receptor): 26 nM

CCCCCCCCc1ccc(CCC(N)(CO)CO)cc1 [FTY720]
adverse event in clinical trials (S1P3 receptor): transient asymptomatic bradycardia | development of EAMG [4]: completely prevented
